Experimental findings from US20070082044A1, “Synergistic effect of compositions comprising carotenoids selected from lutein, beta-carotene and lycopene” (TRUSTEES OF TUFTS COLLEGE, priority 2004, published 2007) are described below.

SMILES strings stand for the structures. Entries after “also recorded” stand apart in the source; their conditions may differ. Marks after values point to notes of the source that are not given here.

On the set-up of series [1]: species or system human. Particulars: in vivo. The procedure:
(§1) A study was undertaken to evaluate the effectiveness of the composition of the present invention and its effect on the patients. Thirty-seven healthy non-smoking post-menopausal women (50˜70 yr) were randomly assigned to one of 5 groups, to take a daily dose of mixed carotenoids (β-carotene, lutein and lycopene, 4 mg each), or 12 mg of single carotenoid (β-carotene, lutein or lycopene), or placebo for 8 weeks. Plasma carotenoid concentrations were analyzed by an HPLC system with a C30 column, and lymphocyte DNA damage was determined by a single cell gel electrophoresis (comet) assay.
Subjects (50-70 yr, n=37) were housed at the MRU for the first two days of the study. On the first day of the study, subjects were randomly assigned to take either 1) placebo, 2) 4 mg each of lutein, β-carotene and lycopene, 3) 4 mg of lutein, 4) 4 mg of β-carotene, or 5) 4 mg of lycopene with a meal containing 25 g of fat. Subjects were provided with a two-week supply of placebo or carotenoids along with instructions how to consume the supplements while being maintained with a low carotenoid diet on each sampling day (days 1, 15, 29 & 43). In particular, they were instructed to take the carotenoid supplements with their first meal of the day, and this food source should include 10 g of fat to insure maximum absorption of the carotenoid supplement. 10 mL of blood will be drawn at 0 (fasting), 2, 4, 6, 8, 10, 12 and 14 hours after the carotenoid dose to obtain information on the early kinetics of carotenoid absorption and tissue uptake. The subjects had the option to have an intravenous line inserted for blood drawing (I.V.). If they chose this option, 12 mL of blood was drawn for each sample and the first 2 mL of blood was discarded. Chylomicrons (the triglyceride-rich fraction of plasma) were isolated and analyzed for carotenoids to determine the plasma response kinetics in these 14 hr samples. Thereafter, subjects were discharged from the HNRC with a two-week supply of placebo or carotenoids along with instructions on how to consume the doses while being maintained on a low carotenoid diet.
(§2) From the second day of intervention, subjects took either 1) placebo, 2) 4 mg of lutein, 4 mg of β-carotene and 4 mg of lycopene, 3) 12 mg of lutein, 4) 12 mg of β-carotene, or 5) 12 mg of lycopene. On study days 15, 29, 43, and 57, overnight fasting bloods (10 mL) were collected, and 1) plasma carotenoids, 2) antioxidant capacity in both the aqueous and lipid compartments, 3) lipid peroxidation, and 4) DNA damage will be measured in these samples. In addition, 70 mL of fasting blood was collected at days 1 and 57 for the analysis of gene expression profiling in peripheral blood mononuclear cells using high-density filter-based cDNA microarrays. On study day 57, an additional 3 ml of blood was collected to measure the hemoglobin level.
Plasma carotenoid concentrations were measured by a HPLC system as previously described with minor modification (Yeum K J et al. Am J Clin Nutr 1996; 64:594-602). Plasma sample (200 μL) was extracted with 2 mL of chloroform:methanol (2: 1) followed by 3 mL of hexane. Samples were dried under nitrogen and resuspended in 75 μL ethanol:methyl tert-butyl ether (2:1) of which 25 μL was injected onto the HPLC. The HPLC system consisted of a Waters 2695 Separation Module, 2996 Photodiode Array Detector, a Waters 2475 Multi X Fluorescence Detector, a C30 carotenoid column (3 μm, 150×3.0 mm, YMC, Wilmington, N.C.), and a Waters Millenium 32 data station. The mobile phase was methanol:methyl tert-butyl ether:water (85:12:3 with 1.5% ammonium acetate in water; […]) and methanol:methyl tert-butyl ether:water (8:90:2 with 1% ammonium acetate in water; […]). The gradient procedure has been reported earlier (Yeum K J et al. Am J Clin Nutr 1996; 64:594-602). Results were adjusted by an internal standard containing echinenone and retinyl acetate. The CV for interassay (n=25) is 4% and intra assay Is 4% (n=9). […]

For series [2], the system named is lymphocyte DNA. Put plainly: Hydrogen peroxide induced lymphocyte DNA damage, comet assay. The conditions noted are these: for hydrogen peroxide induced lymphocyte DNA damage: DNA challenged with 10 μM H2O2 for 10 min, Means ± SD; for H2O2 induced DNA damage compared to day 1: after 56-day intervention (d 57), H2O2 10 micromolar for 10 min, p<0.05. The series is classed as in vivo, human. How it is done: as §1, §2
(§3) DNA breaks and oxidized pyrimidine bases were measured using the alkaline comet assay (Duthie et al Cancer Res 1996; 56:1291-1295). The comet assay, also called the Single Cell Gel Assay, was used to detect DNA damage and repair at the level of single cells. The Comet Assay is a rapid, sensitive test for DNA damage detection (e.g., single- and double-strand breaks, oxidative-induced base damage, and DNA-DNA/DNA-protein cross linking) by electrophoresis. The Comet Assay involves the following steps: 1. Slide preparation (i.e., mixing of cells with low melting agarose, and spread over glass microscope slides); 2. Lysis: (i.e., lysis of cell membrane and other proteins); 3. Unwinding of DNA; 4. Electrophoresis; 5. Neutralization; and 6. Staining and scoring. Cells embedded in agarose on a microscope slide are lysed with non-ionic detergent and high salt, leaving supercoiled matrix-attached DNA in a nucleoid. Under alkaline electrophoresis, DNA with breaks extends towards the anode, forming a “comet tail” when viewed by fluorescence microscopy. The percentage of total fluorescence in the tail is linearly related to DNA break frequency up to about 2 per 10^9 daltons.
(§4) Lymphocyte separation: Lymphocytes were separated immediately after blood samples were collected. Lymphocytes were isolated by density gradient sedimentation (Histopaque 1077, Sigma diagnostic, St. Louis, USA) and frozen in 50% fetal calf serum, 40% culture medium (RPMI 1640, Sigma diagnostic, St. Louis, USA ) and 10% dimethyl sulfoxide to −-80° C. at −1° C./min freezing rate before store in liquid nitrogen.
(§5) Cryopreserved lymphocytes recovery: Cells were recovered by submerging in 37° C. water bath until last trace of ice has melted. Cells were transferred to prechilled 50% RPMI 1640 medium and 50% fetal calf serum and centrifuged at 200 g for 5 min at 4° C. Cells were resuspended in cold PBS and checked for viability (typically 95% viability) and cell number (typically 1×10^5 cells/mL). The lymphocytes of five time points (d1, 15, 29, 43 & 57) were recovered at the same time.
(§6) Alkaline single cell gel electrophoresis: DNA strand breaks were measured in lymphocytes with the alkaline single cell gel electrophoresis, comet assay, (Collins A R. Methods Mol Biol 2002; 203:163-77) with minor modifications. The endogenous DNA damage as well as hydrogen peroxide challenged DNA damage were determined by exposing the agarose embedded with cells to PBS or H2O2 in PBS (10 μM) for 10 min respectively.
(§7) Quantitation of DNA damage: The DNA damage was determined by visual image analysis (Collins A R et al. Methods Mol Biol 2002; 186:147-59). […]

Series [3] deals with lymphocyte DNA. In words: Basal (endogenous) lymphocyte DNA damage, alkaline single cell gel electrophoresis (comet) assay. The series is classed as in vivo, human. The conditions noted are these: for basal lymphocyte DNA damage: women 50-70 yr, mixed 4 mg each/d, single carotenoid 12 mg/d, Means ± SD; for basal DNA damage, percent of comet tail ratio (each day value divided by day 1): d 57, different from placebo p<0.005, FIG. 6; for basal (endogenous) DNA damage compared to day 1: day 15. The procedure: as §1, §2, §3, §4, §5, §6, §7

For the compound `CC1=C(/C=C/C(C)=C/C=C/C(C)=C/C=C/C=C(C)/C=C/C=C(C)/C=C/C2=C(C)CCCC2(C)C)C(C)(C)CCC1` [β-carotene], the “plasma lutein levels, change” value in series [1] was “no increase”. For the same compound, the “plasma lycopene concentrations, change” value in series [1] is reported as “significantly lower levels”. Moreover, the “hydrogen peroxide induced lymphocyte DNA damage” value in series [2] (Day 01 (baseline)) came to 48.2 ± 6.1%; in series [2] (Day 15) it was 44.5 ± 8.9%; in series [2] (Day 29), 41.1 ± 6.2%; in series [2] (Day 43), 44.2 ± 5.7%; in series [2] (Day 57), 38.0 ± 4.8%. Besides, the “H2O2 induced DNA damage compared to day 1” value in series [2] is “significantly improved; also recorded: significantly decreased”. Further, the “basal lymphocyte DNA damage” value in series [3] (Day 01 (baseline)) is 12.4 ± 2.7 %; in series [3] (Day 15), 9.7 ± 2.4^b %; in series [3] (Day 29) it was 8.6 ± 2.9^a %; in series [3] (Day 43) it was 9.4 ± 2.4^a %; in series [3] (Day 57) it was 8.0 ± 1.8^b %. The “basal DNA damage, percent of comet tail ratio (each day value divided by day 1)” value in series [3] is given as “significantly decreased”. In addition, the “basal (endogenous) DNA damage compared to day 1” value in series [3] is given as “significantly decreased”.
In the case of `CC(C)=CCC/C(C)=C/C=C/C(C)=C/C=C/C(C)=C/C=C/C=C(C)/C=C/C=C(C)/C=C/C=C(\C)CCC=C(C)C` [Lycopene, lycopene], in series [1], the “plasma lutein levels, change” value is listed as “no increase”. Further, the “plasma lycopene concentrations, change” value in series [1] was “significantly increased”. Further, the “plasma β-carotene levels, change” value in series [1] is given as “did not show any increase”. Further, the “hydrogen peroxide induced lymphocyte DNA damage” value is given as 50.5 ± 8.9 % in series [2] (Day 01 (baseline)); 49.2 ± 10.1% in series [2] (Day 15); 51.1 ± 3.5 % in series [2] (Day 29); 50.0 ± 6.5% in series [2] (Day 43); 42.5 ± 6.5^b % in series [2] (Day 57). Further, the “H2O2 induced DNA damage compared to day 1” value in series [2] is “significantly improved; also recorded: significantly decreased”. The “basal lymphocyte DNA damage” value in series [3] (Day 01 (baseline)) is reported as 11.9 ± 2.6 %; in series [3] (Day 15), 10.0 ± 3.5^a %; in series [3] (Day 29), 9.0 ± 2.6^a %; in series [3] (Day 43), 7.5 ± 1.9^b %; in series [3] (Day 57) it was 6.8 ± 1.6*^c %. In series [3], the “basal DNA damage, percent of comet tail ratio (each day value divided by day 1)” value is “significantly decreased”. The “basal (endogenous) DNA damage compared to day 1” value in series [3] is recorded as “significantly decreased”.
On to `CC1=C[C@H](O)CC(C)(C)[C@H]1/C=C/C(C)=C/C=C/C(C)=C/C=C/C=C(C)/C=C/C=C(C)/C=C/C1=C(C)C[C@@H](O)CC1(C)C` [Lutein, lutein], for which, in series [1], the “plasma lycopene concentrations, change” value is listed as “significantly lower levels”. Also, the “plasma β-carotene levels, change” value in series [1] is on record as “did not show any increase”. Moreover, the “hydrogen peroxide induced lymphocyte DNA damage” value is recorded as 42.8 ± 6.8% in series [2] (Day 01 (baseline)); 43.5 ± 6.2% in series [2] (Day 15); 43.1 ± 5.6% in series [2] (Day 29); 41.5 ± 9.3% in series [2] (Day 43); 39.8 ± 8.4^a % in series [2] (Day 57). The “H2O2 induced DNA damage compared to day 1” value in series [2] is on record as “did not show any significant change”. For the same compound, the “basal lymphocyte DNA damage” value was 10.6 ± 1.4% in series [3] (Day 01 (baseline)); 9.4 ± 2.1% in series [3] (Day 15); 9.5 ± 1.4% in series [3] (Day 29); 7.7 ± 1.5^b % in series [3] (Day 43); 7.1 ± 1.7*^c % in series [3] (Day 57). For the same compound, the “basal DNA damage, percent of comet tail ratio (each day value divided by day 1)” value in series [3] is “significantly decreased”.
